Assay results reported in patent US6465461B1, “Triazine compounds for treatment of CNS disorders” (SmithKline Beecham Corporation, priority 1997, dated 2002).

Experiments:
[1] = test system: mouse; assay: Mouse pentylenetetrazol infusion test; type: in vivo; conditions: 1 h, read-out: ED50 in pentylenetetrazol infusion test (time to second twitch)
[2] = test system: male Han Wistar rats; assay: Rat maximal electroshock test (MES); type: in vivo; conditions: oral, 2 hr prior to test; for ED50: Rattus norvegicus, suspension in 0.25% methylcellulose, 200 mA, 200 millisec, read-out: MES ED50 (hind limb extension); for therapeutic index (ratio of the ataxia ED50 and MES ED50): rat
Procedure: For example, male Han Wistar rats (150-200 grms) were dosed orally with a suspension of the test compound in 0.25% methylcellulose 2 hr prior to test. A visual observation is carried out just prior to testing for the presence of ataxia. Using auricular electrodes a current of 200 mA, duration 200 millisec, is applied and the presence or absence of hind limb extension noted.

[3] = test system: rat; assay: Rat intraplantar carrageenan model of hyperalgesia and inflammation; type: in vivo; conditions: oral; for ED50: Rattus norvegicus, 30 minutes prior to carrageenan (100 μl of 2% intraplantar), read at three hours, read-out: ED50 for inhibition of the carrageenan-induced reduction in weight bearing
Procedure: Three hours after intraplantar carrageenan administration (100 μl of 2%) in the rat there is a reduction in weight bearing on the inflamed paw and an increase in paw volume consistent with acute hyperalgesia and inflammation.

[4] = target: recombinant human brain type IIA Na+ channel expressed in Chinese hamster ovary cells (Homo sapiens, UniProt Q99250); assay: Whole-cell voltage-clamp on voltage-gated sodium channels
[5] = test system: Male C57BL/6 mice; assay: Mouse MPTP induced neurotoxicity (striatal dopamine depletion); type: in vivo; conditions: 30 minutes before each MPTP injection, striata seven days after MPTP
Procedure: The mouse MPTP model is generally used as a model of Parkinson's disease.
Male C57BL/6 mice received four intraperitoneal injections of MPTP.HCl (15 mg of free base per kg; Research Biochemicals) in saline at 2 hour intervals. Control mice received saline only. The test-compound was administered as four subcutaneous injections in olive oil at 2 hour intervals, 30 minutes before each MPTP injection.
Seven days after MPTP injection the mice were sacrificed and the striata dissected out, immediately frozen, and stored at −80° C. until analysis. On the day of assay issue samples were sonicated in 10 volume (wt./vol.) of 0.1 M perchloric acid containing 1.9 mM sodium hydrosulfite and 1.6 mg/ml DBA-HBr. After centrifugation (2800 g, 10 min at room temperature) and filtration (pore size 0.5 μm, Millipore), the supernatant was transferred to a vial and placed in the automatic sampler (M231XL, Gilson). Dopamine content was measured by high performance liquid chromatography. A compound of formula (I) produced 75% protection against dopamine depletion when dosed at 3 mg/kg (×4) and 98% protection when dosed at 10 mg/kg (×4).

Chain of recombinant human brain type IIA Na+ channel expressed in Chinese hamster ovary cells (Q99250 whole entry): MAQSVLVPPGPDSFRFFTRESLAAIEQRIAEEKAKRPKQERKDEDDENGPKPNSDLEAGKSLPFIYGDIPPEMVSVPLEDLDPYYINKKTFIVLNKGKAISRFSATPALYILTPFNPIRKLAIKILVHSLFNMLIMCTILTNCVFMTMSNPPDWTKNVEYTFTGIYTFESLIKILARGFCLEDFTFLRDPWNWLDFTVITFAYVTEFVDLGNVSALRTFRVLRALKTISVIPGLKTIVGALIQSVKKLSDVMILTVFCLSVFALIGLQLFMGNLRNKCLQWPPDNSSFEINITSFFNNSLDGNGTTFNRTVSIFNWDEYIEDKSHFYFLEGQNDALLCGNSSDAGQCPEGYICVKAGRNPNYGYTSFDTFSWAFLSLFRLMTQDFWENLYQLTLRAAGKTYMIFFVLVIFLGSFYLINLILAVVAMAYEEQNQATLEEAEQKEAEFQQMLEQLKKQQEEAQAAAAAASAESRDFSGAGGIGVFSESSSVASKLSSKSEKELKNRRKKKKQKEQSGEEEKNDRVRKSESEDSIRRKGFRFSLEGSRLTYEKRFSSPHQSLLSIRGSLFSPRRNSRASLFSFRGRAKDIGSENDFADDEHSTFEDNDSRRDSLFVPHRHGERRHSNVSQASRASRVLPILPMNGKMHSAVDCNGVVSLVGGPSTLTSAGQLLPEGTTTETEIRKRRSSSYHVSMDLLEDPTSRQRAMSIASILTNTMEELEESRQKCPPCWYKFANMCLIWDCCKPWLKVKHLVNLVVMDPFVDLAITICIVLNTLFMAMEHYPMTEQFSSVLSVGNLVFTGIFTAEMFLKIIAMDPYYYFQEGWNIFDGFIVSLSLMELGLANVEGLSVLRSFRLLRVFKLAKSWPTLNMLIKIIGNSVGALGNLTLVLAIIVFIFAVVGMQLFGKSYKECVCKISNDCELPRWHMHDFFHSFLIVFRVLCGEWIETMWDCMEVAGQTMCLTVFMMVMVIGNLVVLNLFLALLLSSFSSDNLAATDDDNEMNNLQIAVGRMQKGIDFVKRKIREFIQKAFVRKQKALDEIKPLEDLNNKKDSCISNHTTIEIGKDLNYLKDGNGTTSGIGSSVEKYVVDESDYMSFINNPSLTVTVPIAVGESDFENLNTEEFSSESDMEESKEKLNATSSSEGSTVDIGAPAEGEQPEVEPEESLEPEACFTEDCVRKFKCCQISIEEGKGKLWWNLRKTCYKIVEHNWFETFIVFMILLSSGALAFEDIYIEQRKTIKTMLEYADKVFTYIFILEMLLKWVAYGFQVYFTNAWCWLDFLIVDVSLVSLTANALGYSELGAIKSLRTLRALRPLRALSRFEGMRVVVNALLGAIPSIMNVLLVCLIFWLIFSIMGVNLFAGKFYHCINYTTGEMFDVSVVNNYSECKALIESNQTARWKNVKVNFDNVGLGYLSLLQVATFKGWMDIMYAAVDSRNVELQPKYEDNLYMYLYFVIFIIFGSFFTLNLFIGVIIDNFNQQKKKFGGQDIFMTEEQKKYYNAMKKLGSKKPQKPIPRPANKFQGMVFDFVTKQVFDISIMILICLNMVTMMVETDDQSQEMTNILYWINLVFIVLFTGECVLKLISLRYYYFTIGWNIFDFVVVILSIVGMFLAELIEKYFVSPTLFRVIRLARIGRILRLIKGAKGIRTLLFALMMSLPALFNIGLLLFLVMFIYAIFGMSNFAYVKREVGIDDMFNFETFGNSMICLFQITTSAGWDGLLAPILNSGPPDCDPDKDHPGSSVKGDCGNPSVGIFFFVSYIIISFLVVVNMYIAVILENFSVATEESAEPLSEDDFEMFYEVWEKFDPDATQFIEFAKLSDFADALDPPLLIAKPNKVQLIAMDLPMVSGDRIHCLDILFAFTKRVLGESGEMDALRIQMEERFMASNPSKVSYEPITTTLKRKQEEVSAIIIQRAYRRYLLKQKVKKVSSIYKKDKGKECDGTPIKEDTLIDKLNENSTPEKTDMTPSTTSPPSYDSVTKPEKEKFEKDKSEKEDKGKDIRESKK

Row | IC50 [4] [µM] | Compound | ED50 [1] [mg/kg] | ED50 [2] [mg/kg] | therapeutic index (ratio of the ataxia ED50 and MES ED50) [2] | ED50 [3] [mg/kg] | state selectivity (potency at inactivated state versus resting state) [4] | protection against dopamine depletion ([5]; 3 mg/kg (×4) subcutaneous) [%] | protection against dopamine depletion ([5]; 10 mg/kg (×4) subcutaneous) [%] | reduction in paw volume (anti-inflammatory activity) ([3]; 30 mg/kg, 30 minutes prior to carrageenan) [%]
1 | – | Nc1nnc(-c2cccc(Cl)c2Cl)c(N)n1 [lamotrigine, 3,5diamino-6-(2,3dichlorophenyl)-1,2,4-triazine, reference compound] | 8.4 | 6.1 | 3.3 | 23.5 | approximately 30 fold | – | – | –
2 | 785 | Nc1ncnnc1-c1cc(Cl)cc(Cl)c1Cl [compound of formula (I), 5-amino-6-[2,3,5-trichlorophenyl]-1,2,4-triazine] | 3.8 | 1.7 | 23.7 | 7.5 | approximately 70 fold | 75 | 98 | 50
